For the test, the target named is T1, human ACC2 (Homo sapiens, UniProt O00763).
T1 construct: made in house; host or cells: insect cells (baculoviral expression system)
T1 sequence (O00763 129-2458 limits assumed): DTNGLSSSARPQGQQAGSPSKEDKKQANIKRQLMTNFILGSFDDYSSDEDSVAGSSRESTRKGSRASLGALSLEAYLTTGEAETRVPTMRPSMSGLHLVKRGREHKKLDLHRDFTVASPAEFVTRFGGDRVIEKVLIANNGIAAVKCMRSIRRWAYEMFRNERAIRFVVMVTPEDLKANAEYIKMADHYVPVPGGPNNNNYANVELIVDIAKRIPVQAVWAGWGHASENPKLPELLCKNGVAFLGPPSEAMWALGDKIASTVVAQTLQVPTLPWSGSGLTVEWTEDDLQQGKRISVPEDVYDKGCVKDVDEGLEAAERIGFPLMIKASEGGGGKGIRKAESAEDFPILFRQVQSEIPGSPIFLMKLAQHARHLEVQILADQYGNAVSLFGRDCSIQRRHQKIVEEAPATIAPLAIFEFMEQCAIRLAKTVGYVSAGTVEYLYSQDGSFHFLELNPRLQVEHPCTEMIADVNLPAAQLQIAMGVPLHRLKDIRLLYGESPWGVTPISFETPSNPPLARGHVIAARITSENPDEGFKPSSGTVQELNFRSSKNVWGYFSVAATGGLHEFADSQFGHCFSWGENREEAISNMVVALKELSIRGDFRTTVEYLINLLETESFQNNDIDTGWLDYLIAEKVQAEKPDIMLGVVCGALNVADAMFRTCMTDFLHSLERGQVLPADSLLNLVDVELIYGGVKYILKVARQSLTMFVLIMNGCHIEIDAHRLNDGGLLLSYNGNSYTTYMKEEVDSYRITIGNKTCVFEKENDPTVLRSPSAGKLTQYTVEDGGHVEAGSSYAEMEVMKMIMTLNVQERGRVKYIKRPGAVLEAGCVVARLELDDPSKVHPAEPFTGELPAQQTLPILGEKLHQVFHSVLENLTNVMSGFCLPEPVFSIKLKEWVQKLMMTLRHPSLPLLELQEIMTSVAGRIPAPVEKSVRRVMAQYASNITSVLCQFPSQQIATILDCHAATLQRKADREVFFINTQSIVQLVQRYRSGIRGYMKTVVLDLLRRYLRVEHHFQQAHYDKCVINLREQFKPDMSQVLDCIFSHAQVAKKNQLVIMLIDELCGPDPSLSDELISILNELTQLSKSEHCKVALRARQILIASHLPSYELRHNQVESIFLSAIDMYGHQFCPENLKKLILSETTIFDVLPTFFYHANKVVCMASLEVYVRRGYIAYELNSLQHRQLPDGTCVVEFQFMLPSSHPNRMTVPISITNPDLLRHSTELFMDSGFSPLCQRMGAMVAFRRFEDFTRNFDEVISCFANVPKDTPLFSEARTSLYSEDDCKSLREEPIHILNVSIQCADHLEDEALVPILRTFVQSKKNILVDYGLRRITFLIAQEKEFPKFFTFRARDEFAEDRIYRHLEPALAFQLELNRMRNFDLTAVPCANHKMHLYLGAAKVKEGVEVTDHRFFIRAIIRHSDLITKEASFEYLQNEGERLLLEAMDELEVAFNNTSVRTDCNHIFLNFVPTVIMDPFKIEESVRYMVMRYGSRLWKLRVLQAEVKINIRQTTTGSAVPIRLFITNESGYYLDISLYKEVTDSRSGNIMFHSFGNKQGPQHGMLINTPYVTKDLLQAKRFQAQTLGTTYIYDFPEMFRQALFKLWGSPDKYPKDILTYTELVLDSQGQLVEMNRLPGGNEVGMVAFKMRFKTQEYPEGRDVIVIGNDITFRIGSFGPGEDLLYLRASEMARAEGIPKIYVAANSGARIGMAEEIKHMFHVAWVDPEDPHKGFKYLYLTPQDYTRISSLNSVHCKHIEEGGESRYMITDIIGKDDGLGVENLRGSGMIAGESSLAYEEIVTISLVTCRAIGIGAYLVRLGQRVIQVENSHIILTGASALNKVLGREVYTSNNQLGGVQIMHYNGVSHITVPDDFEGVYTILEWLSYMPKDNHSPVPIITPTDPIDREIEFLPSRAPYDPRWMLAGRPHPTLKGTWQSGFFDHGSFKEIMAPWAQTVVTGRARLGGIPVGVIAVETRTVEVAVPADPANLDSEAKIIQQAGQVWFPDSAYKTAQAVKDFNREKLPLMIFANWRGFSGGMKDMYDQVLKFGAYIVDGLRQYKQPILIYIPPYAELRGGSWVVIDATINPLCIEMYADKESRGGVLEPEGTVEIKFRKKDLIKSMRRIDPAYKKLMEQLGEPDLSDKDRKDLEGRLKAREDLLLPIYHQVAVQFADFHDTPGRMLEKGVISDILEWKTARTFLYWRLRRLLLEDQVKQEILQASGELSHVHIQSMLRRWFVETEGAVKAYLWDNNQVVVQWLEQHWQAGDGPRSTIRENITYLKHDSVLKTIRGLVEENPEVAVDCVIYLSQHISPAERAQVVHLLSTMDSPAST
Kind of test: ACC2 assay, spectrophotometric 384 well assay (NADH-linked, coupled lactate dehydrogenase/pyruvate kinase). It is filed as biochemical. As to conditions: ACC2 assay, hACC2 construct lacking 128 N-terminal amino acids, 25° C., 340 nm; read-out: IC50. An outline of the steps:
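ADP output tracked via pyruvate kinase/lactate dehydrogenase NADH oxidation, slope at 340 nm over 15 min, 25° C, with 500 μM ATP and 200 μM each acetyl-CoA and NADH. Enzyme: insect-cell-expressed human ACC2, N-terminal 128 residues deleted; pH 7.5 Tris with citrate, KHCO3. IC50 from four-parameter regression versus vehicle and no-acetyl-CoA controls.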
As to `C[C@H](NC(=O)N(C)C)c1ccc(C2CCN(c3ncc(-c4ccccc4)cn3)CC2)cc1` [Example 10.111], the IC50 was determined as 170 nM.
`Cc1ccc(-c2cnc(N3CCC(c4ccc([C@H](C)NC(=O)N(C)C)cc4)CC3)nc2)cc1` [Example 10.112]: the IC50 was 120 nM.
As to `C[C@H](NC(=O)N(C)C)c1ccc(C2CCN(c3ncc(-c4ccoc4)cn3)CC2)cc1` [Example 10.113], the IC50 worked out at 530 nM.
To `CC(=O)N[C@@H](C)c1ccc(C2CCN(c3ncc(-c4ccc5cc[nH]c5c4)cn3)CC2)cc1` [Example 10.114] belongs 410 nM; to `COc1ccc2[nH]c(-c3cnc(N4CCC(c5ccc([C@H](C)NC(C)=O)cc5)CC4)nc3)cc2c1` [Example 10.115], 410 nM; to `CC(=O)N[C@@H](C)c1ccc(C2CCN(c3ncc(-c4cc5ccc(C)cc5[nH]4)cn3)CC2)cc1` [Example 10.116], 460 nM.
In the case of `CC(=O)N[C@@H](C)c1ccc(C2CCN(c3ncc(-c4cc5cc(C#N)ccc5[nH]4)cn3)CC2)cc1` [Example 10.117], the IC50 worked out at 680 nM.
As to `CC(=O)N[C@@H](C)c1ccc(C2CCN(c3ncc(-c4cccc5cc[nH]c45)cn3)CC2)cc1` [Example 10.118], the IC50 was 150 nM.
In the case of `CC(=O)N[C@@H](C)c1ccc(C2CCN(c3ncc(-c4cc5ccccc5[nH]4)cn3)CC2)cc1` [Example 10.119], the IC50 was found to be 310 nM.
On to `CC(=O)N[C@@H](C)c1ccc(C2CCN(c3ncc(-c4cccc5[nH]ccc45)cn3)CC2)cc1` [Example 10.120], for which the IC50 was found to be 740 nM.
On to `CC(=O)N[C@@H](C)c1ccc(C2CCN(c3ncc(-c4ccc(C)cn4)cn3)CC2)cc1` [Example 10.121], for which the IC50 came to 110 nM.
Regarding `CC(=O)N[C@@H](C)c1ccc(C2CCN(c3ncc(-c4cc(C)ccn4)cn3)CC2)cc1` [Example 10.122], the IC50 amounted to 150 nM.
In the case of `CC(=O)N[C@@H](C)c1ccc(C2CCN(c3ncc(-c4cccc(CC#N)c4)cn3)CC2)cc1` [Example 10.123], the IC50 was found to be 420 nM.
In the case of `CCOc1ccc(-c2cnc(N3CCC(c4ccc([C@H](C)NC(C)=O)cc4)CC3)nc2)cc1C` [Example 10.125] it was 640 nM.
In the case of `CC(=O)N[C@@H](C)c1ccc(C2CCN(c3ncc(-c4ccc(OC(C)C)c(C)c4)cn3)CC2)cc1` [Example 10.126], the IC50 is 1300 nM.
For the compound `COc1cc(C)c(-c2cnc(N3CCC(c4ccc([C@H](C)NC(C)=O)cc4)CC3)nc2)cc1C` [Example 10.127], the half-inhibitory concentration (IC50) was 1600 nM.
Regarding `COc1cc(-c2cnc(N3CCC(c4ccc([C@H](C)NC(C)=O)cc4)CC3)nc2)ccc1C#N` [Example 10.128], the IC50 worked out at 140 nM.
For the compound `CC(=O)N[C@@H](C)c1ccc(C2CCN(c3ncc(-c4ccc(C)cc4F)cn3)CC2)cc1` [Example 10.129], the IC50 came out at 340 nM.
To `CC(=O)N[C@@H](C)c1ccc(C2CCN(c3ncc(-c4cccs4)cn3)CC2)cc1` [Example 10.130] belongs 40 nM; to `CC(=O)N[C@@H](C)c1ccc(C2CCN(c3ncc(CC(C)C)cn3)CC2)cc1` [Example 10.201], 340 nM.
Regarding `CC(=O)N[C@@H](C)c1ccc(C2CCN(c3ncc(C4CC4)cn3)CC2)cc1` [Example 10.202], the IC50 was found to be 570 nM.
As to `CC(=O)N[C@@H](C)c1ccc(C2CCN(c3ncc(-c4ccccn4)cn3)CC2)cc1` [Example 10.203], the IC50 was 160 nM.
Consider `COc1cc(C)c(-c2cnc(N3CCC(c4ccc([C@H](C)NC(C)=O)cc4)CC3)nc2)c(C)c1` [Example 10.204], for which the IC50 was determined as 350 nM.
As to `CC(=O)N[C@@H](C)c1ccc(C2CCN(c3ccc(-c4ccc5[nH]ccc5c4)cn3)CC2)cc1` [Example 10.301], the IC50 turned out to be 320 nM.
With `CC(=O)N[C@@H](C)c1ccc(C2CCN(c3ncc(-c4ccc5[nH]ccc5c4)cc3F)CC2)cc1` [Example 10.302], the IC50 is 430 nM.
In the case of `CC(=O)N[C@@H](C)c1ccc(C2CCN(c3nccc(C4CC4)c3C)CC2)cc1` [Example 10.303] it was 160 nM; in that of `CC(=O)N[C@@H](C)c1ccc(C2CCN(c3ccc(C4CC4)cn3)CC2)cc1` [Example 10.304], 750 nM; in that of `CC(=O)N[C@@H](C)c1ccc(C2CCN(c3ncc(C4CC4)cc3F)CC2)cc1` [Example 10.305], 460 nM.
In the case of `CCOc1cccc(-c2ccc(N3CCC(c4ccc([C@H](C)NC(C)=O)cc4)CC3)nc2)c1` [Example 10.306] it was 310 nM.
Turning to `CCOc1cccc(-c2cnc(N3CCC(c4ccc([C@H](C)NC(C)=O)cc4)CC3)c(F)c2)c1` [Example 10.307], the IC50 is 310 nM.
Take `CC(=O)N[C@@H](C)c1ccc(C2CCN(c3ccc(-c4ccc(C#N)s4)cn3)CC2)cc1` [Example 10.308]: the IC50 worked out at 80 nM.
`CC(=O)N[C@@H](C)c1ccc(C2CCN(c3ncc(-c4ccc(C#N)s4)cc3F)CC2)cc1` [Example 10.309]: the IC50 came to 80 nM.
To `CC(=O)N[C@@H](C)c1ccc(C2CCN(c3ccc(-c4ccc(F)cc4)cn3)CC2)cc1` [Example 10.310] belongs 40 nM.
To `CC(=O)N[C@@H](C)c1ccc(C2CCN(c3ncc(-c4ccc(F)cc4)cc3F)CC2)cc1` [Example 10.311] belongs 180 nM.
With `CC(=O)N[C@@H](C)c1ccc(C2CCN(c3ccc(-c4ccc5c(c4)OCO5)cn3)CC2)cc1` [Example 10.312], the IC50 was 160 nM.
With `CC(=O)N[C@@H](C)c1ccc(C2CCN(c3ncc(-c4ccc5c(c4)OCO5)cc3F)CC2)cc1` [Example 10.313], the concentration for half-maximal inhibition (IC50) was 120 nM.
In the case of `CC(=O)N[C@@H](C)c1ccc(C2CCN(c3ccc(-c4ccc(C)cc4)cn3)CC2)cc1` [Example 10.314], the IC50 is 280 nM.
For the compound `CC(=O)N[C@@H](C)c1ccc(C2CCN(c3ncc(-c4ccc(C)cc4)cc3F)CC2)cc1` [Example 10.315], the IC50 was determined as 120 nM.
Consider `CCCOc1cc(N2CCC(c3ccc([C@H](C)NC(C)=O)cc3)CC2)ncn1` [Example 11.1], for which the IC50 amounted to 180 nM.
Take `CC(=O)N[C@@H](C)c1ccc(C2CCN(c3cc(OC(C)C)ncn3)CC2)cc1` [Example 11.2]: the IC50 came out at 80 nM.
As for `CC(=O)N[C@@H](C)c1ccc(C2CCN(c3cc(OCCC4CC4)ncn3)CC2)cc1` [Example 11.3], the IC50 is 250 nM.
As for `CC(=O)N[C@@H](C)c1ccc(C2CCN(c3ccnc(OCCC4CC4)n3)CC2)cc1` [Example 11.4], the IC50 came out at 450 nM.
With `CC(=O)N[C@@H](C)c1ccc(C2CCN(c3cc(Oc4ccc(F)cc4)ncn3)CC2)cc1` [Example 11.5], the IC50 was 200 nM.
In the case of `CC(=O)N[C@@H](C)c1ccc(C2CCN(c3ccnc(Oc4ccc(F)cc4)n3)CC2)cc1` [Example 11.6] it was 180 nM; in that of `CC(=O)N[C@@H](C)c1ccc(C2CCN(c3cc(OC4CCCC4)ncn3)CC2)cc1` [Example 11.7], 170 nM; in that of `CC(=O)N[C@@H](C)c1ccc(C2CCN(c3ccnc(OC4CCCC4)n3)CC2)cc1` [Example 11.8], 490 nM.
As to `CC(=O)N[C@@H](C)c1ccc(C2CCN(c3ccnc(OCC4CCCC4)n3)CC2)cc1` [Example 11.9], the IC50 is 380 nM.
On to `CC(=O)N[C@@H](C)c1ccc(C2CCN(c3cc(OCC4CCCC4)ncn3)CC2)cc1` [Example 11.10], for which the IC50 was 270 nM.
Turning to `CC(=O)N[C@@H](C)c1ccc(C2CCN(c3ccnc(OCCC(C)(C)C)n3)CC2)cc1` [Example 11.11], the IC50 worked out at 820 nM.
